Values joined by “and” are separate entries in the source; they are usually repeats but may differ in a detail not shown here. Identical values can stand only once. Like-named read-outs stand apart in the source and are kept apart here.
Test system: sunflower lines carrying the A122T mutation
Assay type: in vivo, Helianthus annuus
Settings: 14 DAT; for plant height, Dif A122T-A205V / root dry weight, Dif with A122T-A205V / biomass accumulation, Dif A122T-A205V: A122T mean minus A205V mean; for biomass accumulation, Dif with Control / plant height, Dif with Control / root dry weight, Dif with Control: A122T mean; for Phytotoxicity Index, Dif A205V-A122T: A205V mean minus A122T mean; for biomass accumulation, Mean / plant height, Mean / root dry weight, Mean: six A122T genotypes; for Phytotoxicity Index, Mean: three A122T genotypes
Method: A greenhouse study was conducted to quantify and contrast the imazapir sensivity of the mutants A122T and A205V in different genetic backgrounds at the whole plant level in sunflower. Seeds of the different sunflower lines that were used in this study were obtained under field conditions.
Seeds were sown in Petri dishes and, after germination, plantlets were transplanted to pots of 10 cm of diameter in a potting media consisting of equal parts of vermiculite, soil and sand. Plants were grown in a greenhouse under natural light conditions supplemented with 400 W sodium halide lamps to provide a 16 hrs daylength. Day/night temperatures were 25 and 20° C., respectively. At the V2 stage 10 plants of each genotype were randomly assigned to each treatment consisting of […] imazapir doses (0, 40, 80, 160, 240, 320, 400 and 480 g ai/ha), and a zero-time biomass determination. Experiment was arranged as a randomized block design with a full factorial (sunflower line×treatment) arrangement of treatments and 10 replications.
On the day of herbicide application ten plants of each genotype were cut at the cotyledonal node and dried at 60° C. for 48 hrs zero-time for dried weight determination.
Height was determined as the distance between the cotyledonal node and the apex of each plant. For root biomass determination, each plant was taken from the pot and the potting media was washed out from the roots. Above ground biomass data from each line were converted to biomass accumulation after application by subtracting the appropriate average zero-time biomass from each sample. Dry biomass data were converted to percentages of the untreated control plants within each line to allow direct comparisons between groups. […]

`CC(C)C1(C)N=C(c2ncccc2C(=O)O)NC1=O` (stereo not shown) [imazapyr] was tested. Which “plant height, Dif A122T-A205V” value (3x (240 g ai/ha)) did it give?
Its value is 45.3 % of untreated plots.

And the “root dry weight, Dif with A122T-A205V” value (3x (240 g ai/ha))?
The value was 50.2 % of untreated plots.

And the “biomass accumulation, Dif A122T-A205V” value (4x (320 g ai/ha))?
The value was 52.4 % of untreated plots.

What about the “plant height, Dif A122T-A205V” value (4x (320 g ai/ha)) of the same compound?
The value was 59.9 % of untreated plots.

And the “root dry weight, Dif with A122T-A205V” value (4x (320 g ai/ha))?
Its value is 50.3 % of untreated plots.

What about the “biomass accumulation, Dif A122T-A205V” value (5x (400 g ai/ha)) of the same compound?
The value was 46.9 % of untreated plots.

And the “plant height, Dif A122T-A205V” value (5x (400 g ai/ha))?
Its value is 57.8 % of untreated plots.

And the “root dry weight, Dif with A122T-A205V” value (5x (400 g ai/ha))?
The value was 47.9 % of untreated plots.

What about the “biomass accumulation, Dif A122T-A205V” value (6x (480 g ai/ha)) of the same compound?
The value was 44.6 % of untreated plots.

What about the “plant height, Dif A122T-A205V” value (6x (480 g ai/ha)) of the same compound?
The value was 54.0 % of untreated plots.

What about the “root dry weight, Dif with A122T-A205V” value (6x (480 g ai/ha)) of the same compound?
The value was 37.3 % of untreated plots.

What about the “biomass accumulation, Dif with Control” value (0.5x (40 g ai/ha)) of the same compound?
Its value is 1.1 % of untreated plots.

And the “plant height, Dif with Control” value (0.5x (40 g ai/ha))?
Its value is 0.6 % of untreated plots.

What about the “root dry weight, Dif with Control” value (0.5x (40 g ai/ha)) of the same compound?
Its value is 0.1 % of untreated plots.

What about the “biomass accumulation, Dif with Control” value (1x (80 g ai/ha)) of the same compound?
The value was 3.2 % of untreated plots.

What about the “plant height, Dif with Control” value (1x (80 g ai/ha)) of the same compound?
The value was 1.4 % of untreated plots.

What about the “root dry weight, Dif with Control” value (1x (80 g ai/ha)) of the same compound?
Its value is 2.5 % of untreated plots.

And the “biomass accumulation, Dif with Control” value (2x (160 g ai/ha))?
Its value is 5.1 % of untreated plots.

What about the “plant height, Dif with Control” value (2x (160 g ai/ha)) of the same compound?
Its value is 2.7 % of untreated plots.

And the “root dry weight, Dif with Control” value (2x (160 g ai/ha))?
Its value is 5.9 % of untreated plots.

And the “biomass accumulation, Dif with Control” value (3x (240 g ai/ha))?
The value was 7.2 % of untreated plots.

And the “plant height, Dif with Control” value (3x (240 g ai/ha))?
The value was 4.4 % of untreated plots.

What about the “root dry weight, Dif with Control” value (3x (240 g ai/ha)) of the same compound?
Its value is 10.6 % of untreated plots.

And the “biomass accumulation, Dif with Control” value (4x (320 g ai/ha))?
The value was 12.2 % of untreated plots.

What about the “plant height, Dif with Control” value (4x (320 g ai/ha)) of the same compound?
The value was 6.3 % of untreated plots.

What about the “root dry weight, Dif with Control” value (4x (320 g ai/ha)) of the same compound?
Its value is 18.6 % of untreated plots.

What about the “biomass accumulation, Dif with Control” value (5x (400 g ai/ha)) of the same compound?
Its value is 20.7 % of untreated plots.

What about the “plant height, Dif with Control” value (5x (400 g ai/ha)) of the same compound?
Its value is 10.2 % of untreated plots.

And the “root dry weight, Dif with Control” value (5x (400 g ai/ha))?
Its value is 21.3 % of untreated plots.

And the “plant height, Dif with Control” value (6x (480 g ai/ha))?
Its value is 15.8 % of untreated plots.

What about the “root dry weight, Dif with Control” value (6x (480 g ai/ha)) of the same compound?
Its value is 38.3 % of untreated plots.

And the “biomass accumulation, Dif with Control” value (6x (480 g ai/ha), listed as imazapir)?
The value was 25 % of untreated plots and 25.4 % of untreated plots.

What about the “Phytotoxicity Index, Dif A205V-A122T” value (0.5x (40 g ai/ha)) of the same compound?
The value was −0.29.

And the “Phytotoxicity Index, Dif A205V-A122T” value (1x (80 g ai/ha))?
The value was −0.29.

And the “Phytotoxicity Index, Dif A205V-A122T” value (2x (160 g ai/ha))?
Its value is 1.87.

And the “Phytotoxicity Index, Dif A205V-A122T” value (3x (240 g ai/ha))?
The value was 4.81.

And the “Phytotoxicity Index, Dif A205V-A122T” value (4x (320 g ai/ha))?
Its value is 6.92.

What about the “Phytotoxicity Index, Dif A205V-A122T” value (5x (400 g ai/ha)) of the same compound?
Its value is 7.38.

And the “Phytotoxicity Index, Dif A205V-A122T” value (6x (480 g ai/ha))?
The value was 7.03.

And the “biomass accumulation, Mean” value (0.5x (40 g ai/ha))?
The value was 98.9 % of untreated plots.

And the “plant height, Mean” value (0.5x (40 g ai/ha))?
Its value is 99.4 % of untreated plots.

What about the “root dry weight, Mean” value (0.5x (40 g ai/ha)) of the same compound?
The value was 99.9 % of untreated plots.

And the “biomass accumulation, Mean” value (1x (80 g ai/ha))?
The value was 96.8 % of untreated plots.

And the “plant height, Mean” value (1x (80 g ai/ha))?
Its value is 98.6 % of untreated plots.

What about the “root dry weight, Mean” value (1x (80 g ai/ha)) of the same compound?
Its value is 97.5 % of untreated plots.

And the “biomass accumulation, Mean” value (2x (160 g ai/ha))?
The value was 94.9 % of untreated plots.

And the “plant height, Mean” value (2x (160 g ai/ha))?
The value was 97.3 % of untreated plots.

And the “root dry weight, Mean” value (2x (160 g ai/ha))?
The value was 94.1 % of untreated plots.

What about the “biomass accumulation, Mean” value (3x (240 g ai/ha)) of the same compound?
Its value is 92.8 % of untreated plots.

And the “plant height, Mean” value (3x (240 g ai/ha))?
The value was 95.6 % of untreated plots.

What about the “root dry weight, Mean” value (3x (240 g ai/ha)) of the same compound?
Its value is 89.4 % of untreated plots.

And the “biomass accumulation, Mean” value (4x (320 g ai/ha))?
Its value is 87.8 % of untreated plots.

And the “plant height, Mean” value (4x (320 g ai/ha))?
The value was 93.7 % of untreated plots.

What about the “root dry weight, Mean” value (4x (320 g ai/ha)) of the same compound?
Its value is 81.4 % of untreated plots.

What about the “biomass accumulation, Mean” value (5x (400 g ai/ha)) of the same compound?
The value was 79.3 % of untreated plots.

What about the “plant height, Mean” value (5x (400 g ai/ha)) of the same compound?
The value was 89.8 % of untreated plots.

And the “root dry weight, Mean” value (5x (400 g ai/ha))?
The value was 78.7 % of untreated plots.

And the “biomass accumulation, Mean” value (6x (480 g ai/ha))?
The value was 74.6 % of untreated plots.

What about the “plant height, Mean” value (6x (480 g ai/ha)) of the same compound?
Its value is 84.2 % of untreated plots.

What about the “root dry weight, Mean” value (6x (480 g ai/ha)) of the same compound?
The value was 61.7 % of untreated plots.

And the “Phytotoxicity Index, Mean” value (0.5x (40 g ai/ha))?
The value was 0.3.

What about the “Phytotoxicity Index, Mean” value (1x (80 g ai/ha)) of the same compound?
The value was 0.3.

What about the “Phytotoxicity Index, Mean” value (2x (160 g ai/ha)) of the same compound?
The value was 0.3.

And the “Phytotoxicity Index, Mean” value (3x (240 g ai/ha))?
The value was 0.3.

What about the “Phytotoxicity Index, Mean” value (4x (320 g ai/ha)) of the same compound?
Its value is 0.5.

What about the “Phytotoxicity Index, Mean” value (5x (400 g ai/ha)) of the same compound?
The value was 0.8.

And the “Phytotoxicity Index, Mean” value (6x (480 g ai/ha))?
The value was 1.2.

From US20180016593A1, “HERBICIDE-RESISTANT SUNFLOWER PLANTS, POLYNUCLEOTIDES ENCODING HERBICIDE-RESISTANT ACETOHYDROXYACID SYNTHASE LARGE SUBUNIT PROTEINS, AND METHODS OF USE” (priority 2005, published 2018)
